Experimental data: patent US20110190503A1, “Thiazolopyridin-2-yloxy-phenyl and thiazolopyrazin-2-yloxy-phenyl amines as modulators of leukotriene A4 hydrolase” (Janssen Pharmaceutical NV, priority 2008, published 2011)
Like-named read-outs stand apart in the source and are kept apart here.

How the values were obtained:
[1] = system: LTB4 production by calcium ionophore-stimulated murine blood; test: LTB4 production by calcium ionophore-stimulated murine blood for LTA4H inhibitor activity; format: cell-based, CD-1 mice; details: Mus musculus
How it was run: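 LTB4 quantified by EIA in supernatants after murine (CD-1) heparinized whole blood was exposed to compound for 15 min, then to 7 μg/mL (final) A23187 for 30 min, all at 37° C. Reported values: single runs or means; three or more runs include SD.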

[2] = system: LTB4 production by calcium ionophore-stimulated human blood; test: LTB4 production by calcium ionophore-stimulated human blood for LTA4H inhibitor activity; format: cell-based
Description: Assay 3: LTB4 Production by Calcium Ionophore-Stimulated Human Blood for LTA4H Inhibitor Activity
Human blood was collected from healthy donors in heparin-containing syringes. The blood was diluted 1:1 with RPMI-1640 medium, and 200-μL aliquots of the diluted blood were added to wells of a 96-well microtiter plate. LTA4H inhibitor test compounds were prepared at different concentrations in RPMI-1640 medium containing 1% DMSO, and 20 μL of each test solution was added to a well containing diluted whole blood (final DMSO concentration of 0.1%). After the microtiter plate contents were incubated for 15 min at 37° C. in a humidified incubator, calcium ionophore A23187 (Sigma Chemical Co., St. Louis, Mo.) was added to each sample well (final concentration=7 μg/mL). The incubation was continued under the same conditions for an additional 30 min to allow LTB4 formation. The reaction was terminated by centrifugation (833×g, 10 min at 4° C.), and supernatants were analyzed for LTB4 by a commercially available enzyme-linked immunoassay (Cayman Chemical Co.) according to the manufacturer's instructions. Positive controls, under essentially identical conditions but without addition of an inhibitor compound, and negative unstimulated controls, containing all assay components except calcium ionophore, were routinely run in each experiment. IC50 values for compounds tested in this assay were determined by nonlinear regression of the activity data at different compound concentrations using Graphpad Prism 4.0, one site binding competition, and are presented in Table 3. The number of determinations made is indicated in parentheses following each value.

[3] = murine blood diluted 1 in 15, calcium ionophore A23187, LTB4 by immunoassay, read-out: IC50
[4] = human blood diluted 1:1, calcium ionophore A23187, LTB4 by immunoassay, n in parentheses, read-out: IC50

## CC(=O)N1C[C@@H]2C[C@H]1CN2CCOc1ccc(Oc2nc3ncccc3s2)cc1 [Example 14, 2-(4-{2-[(1S,4S)-5-Acetyl-2,5-diazabicyclo[2.2.1]hept-2-yl]ethoxy}phenoxy)[1,3]thiazolo[4,5-b]pyridine]
[1]; [3]
  IC50: 18 ± 13 nM
[2]; [4]
  IC50: 79 nM

## CC(=O)N1C[C@@H]2C[C@H]1CN2Cc1ccc(Oc2nc3ncc(C)cc3s2)cc1 [Example 121, 2-(4-{[(1S,4S)-5-Acetyl-2,5-diazabicyclo[2.2.1]hept-2-yl]methyl}phenoxy)-6-methyl[1,3]thiazolo[4,5-b]pyridine]
[1]; [3]
  IC50: 120 ± 42 nM
[2]; [4]
  IC50: 88 nM

## NC(=O)N1C[C@@H]2C[C@H]1CN2Cc1ccc(Oc2nc3ncccc3s2)cc1 [Example 106, (1S,4S)-5-[4-([1,3]Thiazolo[4,5-b]pyridin-2-yloxy)benzyl]-2,5-diazabicyclo[2.2.1]heptane-2-carboxamide]
[1]; [3]
  IC50: 79 nM
[2]; [4]
  IC50: 141 nM

## O=C1CCCN1C1CCN(CCOc2ccc(Oc3nc4ncccc4s3)cc2)CC1 [Example 32, 1-(1-{2-[4-([1,3]Thiazolo[4,5-b]pyridin-2-yloxy)phenoxy]ethyl}piperidin-4-yl)pyrrolidin-2-one]
[1]; [3]
  IC50: 22 nM
[2]; [4]
  IC50: 8 nM

## CC(=O)N[C@@H]1C[C@H]2CC[C@@H](C1)N2Cc1ccc(Oc2nc3ncccc3s2)cc1 [Example 109, meso-N-{(3-exo)-8-[4-([1,3]Thiazolo[4,5-b]pyridin-2-yloxy)benzyl]-8-azabicyclo[3.2.1]oct-3-yl}acetamide]
[1]
  IC50: 60 nM
[2]; Homo sapiens
  IC50: 87 nM

## NC(=O)N1C[C@H]2C[C@@H]1CN2Cc1ccc(Oc2nc3ncccc3s2)cc1 [Example 266, (1R,4R)-5-[4-([1,3]Thiazolo[4,5-b]pyridin-2-yloxy)benzyl]-2,5-diazabicyclo[2.2.1]heptane-2-carboxamide]
[1]; [3]
  IC50: 140 nM
[2]; [4]
  IC50: 154 nM

## NC(=O)N1C[C@@H]2C[C@H]1CN2CCc1ccc(Oc2nc3ncccc3s2)cc1 [Example 45, (1S,4S)-5-{2-[4-([1,3]Thiazolo[4,5-b]pyridin-2-yloxy)phenyl]ethyl}-2,5-diazabicyclo[2.2.1]heptane-2-carboxamide]
[1]; [3]
  IC50: 170 nM
[2]; [4]
  IC50: 256 nM

## NC(=O)C1CCN(CCOc2ccc(Oc3nc4ncccc4s3)cc2)CC1 [Example 31, 1-{2-[4-([1,3]Thiazolo[4,5-b]pyridin-2-yloxy)phenoxy]ethyl}piperidine-4-carboxamide]
[1]; [3]
  IC50: 31 nM
[2]; [4]
  IC50: 53 nM

## CC(=O)N1C[C@H]2C[C@@H]1CN2Cc1ccc(Oc2nc3ncccc3s2)cc1 [Example 265, 2-(4-{[(1R,4R)-5-Acetyl-2,5-diazabicyclo[2.2.1]hept-2-yl]methyl}phenoxy)[1,3]thiazolo[4,5-b]pyridine]
[1]; [3]
  IC50: 23 nM
[2]; [4]
  IC50: 72 nM

## CC(=O)N1C[C@H]2CC[C@@H](C1)N2CCc1ccc(Oc2nc3ncccc3s2)cc1 [Example 55, meso-2-(4-{2-[3-Acetyl-3,8-diazabicyclo[3.2.1]oct-8-yl]ethyl}phenoxy)[1,3]thiazolo[4,5-b]pyridine]
[1]; [3]
  IC50: 55 nM
[2]; [4]
  IC50: 99 nM

## CC(=O)N1C[C@H]2C[C@@H]1CN2CCOc1ccc(Oc2nc3ncccc3s2)cc1 [Example 267, 2-(4-{2-[(1R,4R)-5-Acetyl-2,5-diazabicyclo[2.2.1]hept-2-yl]ethoxy}phenoxy)[1,3]thiazolo[4,5-b]pyridine]
[1]; [3]
  IC50: 110 nM
[2]; [4]
  IC50: 57 nM

## CC(=O)N1C[C@@H]2C[C@H]1CN2CCc1ccc(Oc2nc3ncccc3s2)cc1 [Example 75, 2-(4-{2-[(1S,4S)-5-Acetyl-2,5-diazabicyclo[2.2.1]hept-2-yl]ethyl}phenoxy)[1,3]thiazolo[4,5-b]pyridine]
[1]; [3]
  IC50: 44 nM
[2]; [4]
  IC50: 299 nM

## CC(=O)N[C@H]1C[C@H]2CC[C@@H](C1)N2Cc1ccc(Oc2nc3ncccc3s2)cc1 [Example 116, meso-N-{(3-endo)-8-[4-([1,3]Thiazolo[4,5-b]pyridin-2-yloxy)benzyl]-8-azabicyclo[3.2.1]oct-3-yl}acetamide]
[1]
  IC50: 22 ± 17 nM
[2]; Homo sapiens
  IC50: 19 nM

## O=C1CCCN1C1CCN(Cc2ccc(Oc3nc4ncccc4s3)cc2)CC1 [Example 83, 1-{1-[4-([1,3]Thiazolo[4,5-b]pyridin-2-yloxy)benzyl]piperidin-4-yl}pyrrolidin-2-one]
[1]; [3]
  IC50: 55 nM
[2]; [4]
  IC50: 134 nM

## CC(=O)N1CC2CN(CCc3ccc(Oc4nc5ncccc5s4)cc3)CC2C1 (stereo not drawn) [Example 73, 2-{4-[2-(5-Acetylhexahydropyrrolo[3,4-c]pyrrol-2(1H)-yl)ethyl]phenoxy}[1,3]thiazolo[4,5-b]pyridine]
[1]; [3]
  IC50: 50 nM
[2]; [4]
  IC50: 227 nM
